{"source": "paper PMC4506051", "about": "“Pharmacokinetic Profiles of Active Ingredients and Its Metabolites Derived from Rikkunshito, a Ghrelin Enhancer, in Healthy Japanese Volunteers: A Cross-Over, Randomized Study” (PLoS ONE, 2015)", "key": {"[1]": {"conditions": "7.5 g dosage; cited from earlier work"}, "[2]": {"experiment": "Method validation: post-preparative stability (autosampler)", "conditions": "autosampler set at 4°C"}, "[3]": {"experiment": "Method validation: short-term stability in plasma"}, "[4]": {"experiment": "Method validation: stability in standard, stock and working solution", "conditions": "for Stock solution stability, RR: 0.1 mg/mL (naringenin 0.5 mg/mL)"}, "[5]": {"experiment": "Dose proportionality (linearity) test by power model for C max and AUC0-last", "conditions": "for Dose proportionality test using power model, Inference: linear when 90% CI of β included 1, CIlower ≥0.8, and CIupper ≤1.25; for Dose proportionality test using power model, β: rikkunshito 2.5, 5.0 or 7.5 g", "description": "The dose proportionality was analyzed via a power model [21, 22]. […] Evaluation of linearity of the dosage-exposure relationship was conducted with Phoenix WinNonlin and SAS 9.2 (SAS Institute, Inc., Cary, NC)."}, "[6]": {"experiment": "Method validation: stability in blood"}, "[7]": {"experiment": "Exploratory trial: plasma concentration of rikkunshito ingredients after single oral rikkunshito 7.5 g", "assay_type": "in vivo", "conditions": "mean ± S.D., n = 4", "outline": "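Plasma and urine levels were measured by LC–MS/MS after one 7.5 g oral dose of rikkunshito. Samples were collected before dosing and at 0.5–8 h for blood, or in 0–4 h and 4–8 h fractions for urine. Synephrine was determined after protein-removal plate cleanup; the other ingredients after β-glucuronidase deconjugation (2 h, 37°C) and SPE.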"}, "[8]": {"experiment": "Method validation: freeze-thaw stability in plasma", "conditions": "−30°C to −10°C, 3 cycles"}, "[9]": {"experiment": "Method validation: long-term stability in plasma"}}}
{"smiles": "C=C(CC[C@@H](C(=O)O)[C@H]1[C@H](O)C[C@@]2(C)C3=C(CC[C@]12C)[C@@]1(C)CC[C@H](OC(C)=O)C(C)(C)[C@@H]1CC3)C(C)C", "note": "[Pachymic acid]", "values": [{"measurement": "Maximum plasma concentration in the preliminary pharmacokinetics study", "setting": "[1]", "value": "0.228 ± 0.116", "unit": "ng/mL"}, {"measurement": "Post-preparative stability, RR", "setting": "[2]; 24 h, higher concentration (pachymic acid 800, heptamethoxyflavone 320 pg/mL)", "value": 88.4, "unit": "%"}, {"measurement": "Post-preparative stability, RR", "setting": "[2]; 24 h, lower concentration (pachymic acid 20, heptamethoxyflavone 8 pg/mL)", "value": 92.4, "unit": "%"}, {"measurement": "Post-preparative stability, RR", "setting": "[2]; 48 h, higher concentration (800 / 320 / 4000 pg/mL)", "value": 98.2, "unit": "%"}, {"measurement": "Post-preparative stability, RR", "setting": "[2]; 48 h, lower concentration (20 / 8 / 100 pg/mL)", "value": 93.8, "unit": "%"}, {"measurement": "Short-term stability, RR", "setting": "[3]; room temperature 25 h, higher concentration (pachymic acid 800, heptamethoxyflavone 320 pg/mL)", "value": 93.8, "unit": "%"}, {"measurement": "Short-term stability, RR", "setting": "[3]; room temperature 25 h, lower concentration (pachymic acid 20, heptamethoxyflavone 8 pg/mL)", "value": 85.9, "unit": "%"}, {"measurement": "Short-term stability, RR", "setting": "[3]; room temperature (1°C to 30°C) 4 h, higher concentration (800 / 320 / 4000 pg/mL)", "value": 95.1, "unit": "%"}, {"measurement": "Short-term stability, RR", "setting": "[3]; room temperature (1°C to 30°C) 4 h, lower concentration (20 / 8 / 100 pg/mL)", "value": 95.8, "unit": "%"}, {"measurement": "Working solution stability, RR", "setting": "[4]; refrigerator 53 days, higher concentration (pachymic acid 10, heptamethoxyflavone 4, naringenin 50 ng/mL)", "value": 101.1, "unit": "%"}, {"measurement": "Working solution stability, RR", "setting": "[4]; refrigerator 53 days, lower concentration (pachymic acid 0.1, heptamethoxyflavone 0.04, naringenin 0.5 ng/mL)", "value": 109.1, "unit": "%"}, {"measurement": "Working solution stability, RR", "setting": "[4]; refrigerator 128 days, higher concentration (10 / 4 / 50 ng/mL)", "value": 113.2, "unit": "%"}, {"measurement": "Working solution stability, RR", "setting": "[4]; refrigerator 128 days, lower concentration (0.1 / 0.04 / 0.5 ng/mL)", "value": 102.1, "unit": "%"}, {"measurement": "Stock solution stability, RR", "setting": "[4]; refrigerator (1°C to 8°C) 54 days", "value": "54 days: 101.7%"}, {"measurement": "Stock solution stability, RR", "setting": "[4]; refrigerator (1°C to 8°C) 129 days", "value": "129 days: 110.1%"}, {"measurement": "Dose proportionality test using power model, Inference", "setting": "[5]; AUC0-last", "value": "Nonlinear"}, {"measurement": "Dose proportionality test using power model, β", "setting": "[5]; AUC0-last", "value": 1.39}, {"measurement": "Dose proportionality test using power model, Inference", "setting": "[5]; Cmax", "value": "Nonlinear"}, {"measurement": "Dose proportionality test using power model, β", "setting": "[5]; Cmax", "value": 0.856}, {"measurement": "Stability in blood, RR", "setting": "[6]; on ice 2 h, higher concentration (800 / 320 / 4000 pg/mL)", "value": 93.4, "unit": "%"}, {"measurement": "Stability in blood, RR", "setting": "[6]; on ice 2 h, lower concentration (20 / 8 / 100 pg/mL)", "value": 103.1, "unit": "%"}, {"measurement": "Stability in blood, RR", "setting": "[6]; room temperature 2 h, higher concentration (pachymic acid 800, heptamethoxyflavone 320, naringenin 4000 pg/mL)", "value": 91.8, "unit": "%"}, {"measurement": "Stability in blood, RR", "setting": "[6]; room temperature 2 h, lower concentration (pachymic acid 20, heptamethoxyflavone 8, naringenin 100 pg/mL)", "value": 103.1, "unit": "%"}, {"measurement": "Plasma concentration, 0 h", "setting": "[7]; 0 h (preadministration), single oral rikkunshito 7.5 g", "value": "0.14 ± 0.184", "unit": "ng/mL"}, {"measurement": "Plasma concentration, 0.5 h", "setting": "[7]; 0.5 h after single oral rikkunshito 7.5 g", "value": "0.126 ± 0.185", "unit": "ng/mL"}, {"measurement": "Plasma concentration, 1 h", "setting": "[7]; 1 h after single oral rikkunshito 7.5 g", "value": "0.127 ± 0.178", "unit": "ng/mL"}, {"measurement": "Plasma concentration, 2 h", "setting": "[7]; 2 h after single oral rikkunshito 7.5 g", "value": "0.205 ± 0.0765", "unit": "ng/mL"}, {"measurement": "Plasma concentration, 4 h", "setting": "[7]; 4 h after single oral rikkunshito 7.5 g", "value": "0.0905 ± 0.181", "unit": "ng/mL"}, {"measurement": "Plasma concentration, 8 h", "setting": "[7]; 8 h after single oral rikkunshito 7.5 g", "value": "0.103 ± 0.129", "unit": "ng/mL"}, {"measurement": "Freeze-thaw stability, RR", "setting": "[8]; higher concentration (800 / 320 / 4000 pg/mL)", "value": 114.0, "unit": "%"}, {"measurement": "Freeze-thaw stability, RR", "setting": "[8]; lower concentration (20 / 8 / 100 pg/mL)", "value": 108.8, "unit": "%"}, {"measurement": "Long-term stability, RR", "setting": "[9]; freezer −30°C to −10°C, 13 days, lower concentration (pachymic acid 20, heptamethoxyflavone 8 pg/mL)", "value": 110.9, "unit": "%"}, {"measurement": "Long-term stability, RR", "setting": "[9]; freezer, 13 days, higher concentration (pachymic acid 800, heptamethoxyflavone 320 pg/mL)", "value": 113.9, "unit": "%"}, {"measurement": "Long-term stability, RR", "setting": "[9]; freezer, 39 days, higher concentration (800 / 320 pg/mL)", "value": 107.6, "unit": "%"}, {"measurement": "Long-term stability, RR", "setting": "[9]; freezer, 39 days, lower concentration (20 / 8 pg/mL)", "value": 104.1, "unit": "%"}, {"measurement": "Long-term stability, RR", "setting": "[9]; freezer, 228 days, higher concentration (800 / 320 pg/mL)", "value": 92.5, "unit": "%"}, {"measurement": "Long-term stability, RR", "setting": "[9]; freezer, 228 days, lower concentration (20 / 8 pg/mL)", "value": 89.6, "unit": "%"}]}
